Measurements taken from patent US20220409620A1, “REDUCING IMMUNOGENICITY TO PEGLOTICASE” (Horizon Pharma Rheumatology LLC, priority 2016, published 2022).
Like-named read-outs stand apart in the source and are kept apart here.

Experiments:
[1] = tested on: adult patients with uncontrolled gout
Description: As used herein, an “adverse event” or “AE” refers to any untoward medical occurrence associated with the use of a drug in humans, whether it is considered drug-related or not. An AE or suspected adverse reaction is considered a “serious adverse event” or “SAE” if, in the view of either the Investigator or Sponsor, it results in any of the following outcomes: (1) Death, (2) Life-threatening: an AE is considered “life-threatening” if, in the view of either the Investigator or Sponsor, its occurrence places the subject or subject at immediate risk of death. […] (5) A congenital anomaly/birth defect; (6) Important medical events that may not result in death, be life-threatening, or require hospitalization may be considered serious when, based upon appropriate medical judgment, they may jeopardize the patient or subject and may require medical or surgical intervention to prevent one of the outcomes listed in this definition.
Safety Variables: Safety was assessed via AE and concomitant medication use monitoring, physical examinations, vital signs, clinical safety laboratory evaluations (hematology, chemistry, urine uric acid:creatinine ratio), pregnancy testing (if applicable), electrocardiograms (ECGs), and AEs of special interest (i.e., IRs, anaphylaxis, gout flares, and cardiovascular events).
AEs of special interest may include IRs, anaphylaxis, gout flares, and cardiovascular events.
Severity in accordance with the disclosure is reported according to the following: Grade 1 (Mild)—No interference with daily activity. Grade 2 (Moderate)—Some interference with daily activity but medical intervention not required (e.g., doctor visit and/or medication); over the counter medicine permitted. Grade 3 (Severe)—Prevents daily activity and requires medical intervention (e.g., doctor visit and/or medication). Grade 4 (Potentially Life-threatening)—Emergency room visit or hospitalization.
An AE was defined as any untoward event, whether or not it was considered related to the use of pegloticase or MTX. Any worsening (i.e., any clinically significant adverse change in frequency or intensity) of a preexisting condition which was temporally associated with the use of pegloticase or MTX was also considered an AE. Abnormal laboratory values or test results constitute AEs only if they induce clinical signs or symptoms or require therapy, and were recorded on the AE CRF under the signs, symptoms or were associated with diagnoses associated with them. Screening conditions were not considered AE; however, worsening of a preexisting condition may be considered an AE. AEs were collected starting at the baseline, Visit 1.
TEAEs during the Pegloticase+IMM Period were defined as events that occur after the start of the first pegloticase infusion through 30 days after the last dose of pegloticase and/or MTX or placebo for MTX (whichever was later). TEAEs that occur during the MTX Tolerability Assessment Period prior to randomization (Weeks −6 to −4) was summarized separately for the MTX population. […] AEs that occur more than 30 days after the last dose of pegloticase and/or MTX or placebo for MTX through the 6-month follow-up visit was also summarized.
The number and percentage of subjects experiencing AEs were summarized by system organ class and preferred term. Summaries by maximum severity and relationship to MTX and/or pegloticase was also provided. SAEs and AEs leading to discontinuation of MTX and/or pegloticase were presented by system organ class and preferred term.

patients = conditions: cited from earlier work
[2] = tested on: adult patients with uncontrolled gout; conditions: human, in vivo
[3] = tested on: subjects with refractory gout; conditions: after doses of 4 to 12 mg; from 11.1±0.6 mg/dL; cited from earlier work
[4] = tested on: patients with refractory chronic gout; conditions: cited from earlier work; for patients maintaining a response to pegloticase: another study
[5] = Stability of pegloticase diluted in infusion bags; assay type: physicochemical; conditions: at 2° C. to 8° C. and at room temperature (20° C. to 25° C.)
Description: Pegloticase diluted in infusion bags was stable for 4 hours at 2° C. to 8° C. (36° F. to 46° F.) and at room temperature (20° C. to 25° C., 68° F. to 77° F.); however, the diluted solution was stored under refrigeration, not frozen, protected from light, and used within 4 hours of dilution. Before administration, the diluted solution of pegloticase was allowed to reach room temperature. Pegloticase in a vial or IV infusion fluid was never subjected to artificial heating.

[6] = Methotrexate Run-in Period, ITT (N = 15)
[7] = Methotrexate Run-in Period, mITT (N = 14)

CN(Cc1cnc2nc(N)nc(N)c2n1)c1ccc(C(=O)N[C@@H](CCC(=O)O)C(=O)O)cc1 [MTX, methotrexate]
Infections And Infestations, % [1]: (13.3) % | Abdominal Discomfort, % [1, 6]: (13.3) % | Abdominal Discomfort, Incidence Rate [1, 6]: 1.8 Events/PY of MTX | Any TEAEs, % [1, 6]: (66.7) % | Any TEAEs, Incidence Rate [1, 6]: 18.2 Events/PY of MTX | Blood And Lymphatic System Disorders, % [1, 6]: (6.7) % | Blood And Lymphatic System Disorders, Incidence Rate [1, 6]: 1.8 Events/PY of MTX | Chronic Sinusitis, % [1, 6]: (6.7) % | Chronic Sinusitis, Incidence Rate [1, 6]: 0.9 Events/PY of MTX | Cough, % [1, 6]: (6.7) % | Cough, Incidence Rate [1, 6]: 0.9 Events/PY of MTX | Dental Caries, % [1, 6]: (6.7) % | Dental Caries, Incidence Rate [1, 6]: 0.9 Events/PY of MTX | Diarrhoea, % [1, 6]: (6.7) % | Diarrhoea, Incidence Rate [1, 6]: 0.9 Events/PY of MTX | Dry Eye, % [1, 6]: (6.7) % | Dry Eye, Incidence Rate [1, 6]: 0.9 Events/PY of MTX | Eye Disorders, % [1, 6]: (6.7) % | Eye Disorders, Incidence Rate [1, 6]: 0.9 Events/PY of MTX | Gastrointestinal Disorders, % [1, 6]: (33.3) % | Gastrointestinal Disorders, Incidence Rate [1, 6]: 5.5 Events/PY of MTX | Gout, % [1, 6]: (33.3) % | Gout, Incidence Rate [1, 6]: 5.5 Events/PY of MTX | Headache, % [1, 6]: (6.7) % | Headache, Incidence Rate [1, 6]: 0.9 Events/PY of MTX | Leukopenia, % [1, 6]: (6.7) % | Leukopenia, Incidence Rate [1, 6]: 0.9 Events/PY of MTX | Metabolism And Nutrition Disorders, % [1, 6]: (33.3) % | Metabolism And Nutrition Disorders, Incidence Rate [1, 6]: 5.5 Events/PY of MTX | Nasopharyngitis, % [1, 6]: (6.7) % | Nasopharyngitis, Incidence Rate [1, 6]: 0.9 Events/PY of MTX | Nausea, % [1, 6]: (13.3) % | Nausea, Incidence Rate [1, 6]: 1.8 Events/PY of MTX | Nervous System Disorders, % [1, 6]: (6.7) % | Nervous System Disorders, Incidence Rate [1, 6]: 0.9 Events/PY of MTX | Neutropenia, % [1, 6]: (6.7) % | Neutropenia, Incidence Rate [1, 6]: 0.9 Events/PY of MTX | Pruritus, % [1, 6]: (6.7) % | Pruritus, Incidence Rate [1, 6]: 0.9 Events/PY of MTX | Respiratory, Thoracic And Mediastinal Disorders, % [1, 6]: (6.7) % | Respiratory, Thoracic And Mediastinal Disorders, Incidence Rate [1, 6]: 0.9 Events/PY of MTX | Skin And Subcutaneous Tissue Disorders, % [1, 6]: (6.7) % | Skin And Subcutaneous Tissue Disorders, Incidence Rate [1, 6]: 0.9 Events/PY of MTX | Abdominal Discomfort, % [1, 7]: (14.3) % | Abdominal Discomfort, Incidence Rate [1, 7]: 2.0 Events/PY of MTX | Any TEAEs, % [1, 7]: (71.4) % | Any TEAEs, Incidence Rate [1, 7]: 20.0 Events/PY of MTX | Blood And Lymphatic System Disorders, % [1, 7]: (7.1) % | Blood And Lymphatic System Disorders, Incidence Rate [1, 7]: 2.0 Events/PY of MTX | Chronic Sinusitis, % [1, 7]: (7.1) % | Chronic Sinusitis, Incidence Rate [1, 7]: 1.0 Events/PY of MTX | Cough, % [1, 7]: (7.1) % | Cough, Incidence Rate [1, 7]: 1.0 Events/PY of MTX | Dental Caries, % [1, 7]: (7.1) % | Dental Caries, Incidence Rate [1, 7]: 1.0 Events/PY of MTX | Diarrhoea, % [1, 7]: (7.1) % | Diarrhoea, Incidence Rate [1, 7]: 1.0 Events/PY of MTX | Dry Eye, % [1, 7]: (7.1) % | Dry Eye, Incidence Rate [1, 7]: 1.0 Events/PY of MTX | Eye Disorders, % [1, 7]: (7.1) % | Eye Disorders, Incidence Rate [1, 7]: 1.0 Events/PY of MTX | Gastrointestinal Disorders, % [1, 7]: (35.7) % | Gastrointestinal Disorders, Incidence Rate [1, 7]: 6.0 Events/PY of MTX | Gout, % [1, 7]: (35.7) % | Gout, Incidence Rate [1, 7]: 6.0 Events/PY of MTX | Headache, % [1, 7]: (7.1) % | Headache, Incidence Rate [1, 7]: 1.0 Events/PY of MTX | Infections And Infestations, % [1, 7]: (14.3) % | Infections And Infestations, Incidence Rate [1, 7]: 2.0 Events/PY of MTX | Infections And Infestations, Total Events [1, 7]: 2 | Leukopenia, % [1, 7]: (7.1) % | Leukopenia, Incidence Rate [1, 7]: 1.0 Events/PY of MTX | Metabolism And Nutrition Disorders, % [1, 7]: (35.7) % | Metabolism And Nutrition Disorders, Incidence Rate [1, 7]: 6.0 Events/PY of MTX | Nasopharyngitis, % [1, 7]: (7.1) % | Nasopharyngitis, Incidence Rate [1, 7]: 1.0 Events/PY of MTX | Nausea, % [1, 7]: (14.3) % | Nausea, Incidence Rate [1, 7]: 2.0 Events/PY of MTX | Nervous System Disorders, % [1, 7]: (7.1) % | Nervous System Disorders, Incidence Rate [1, 7]: 1.0 Events/PY of MTX | Neutropenia, % [1, 7]: (7.1) % | Neutropenia, Incidence Rate [1, 7]: 1.0 Events/PY of MTX | Pruritus, % [1, 7]: (7.1) % | Pruritus, Incidence Rate [1, 7]: 1.0 Events/PY of MTX | Respiratory, Thoracic And Mediastinal Disorders, % [1, 7]: (7.1) % | Respiratory, Thoracic And Mediastinal Disorders, Incidence Rate [1, 7]: 1.0 Events/PY of MTX | Skin And Subcutaneous Tissue Disorders, % [1, 7]: (7.1) % | Skin And Subcutaneous Tissue Disorders, Incidence Rate [1, 7]: 1.0 Events/PY of MTX | Infections And Infestations, Incidence Rate ([1]; human, in vivo, 4 weeks): 1.8 Events/PY of MTX | Infections And Infestations, Total Events ([1]; human, in vivo, 4 weeks): 2 | tolerability of MTX ([1]; oral 15 mg/week, all patients): tolerated | Increased susceptibility to infection (patients; RA): < 1% | Leukopenia (patients; RA): 28% | Nausea and vomiting (patients; RA): 12% | Increased susceptibility to infection (patients; renal transplant): 20% | Leukopenia (patients; renal transplant): > 50% | neoplasia (lymphoma) (patients; renal transplant): 0.5% | neoplasia (other than lymphoma) (patients; renal transplant): 3% | Number of gout flares among subjects with at least one gout flare, Mean (SD) [2]: 1.2 | Number of gout flares among subjects with at least one gout flare, Median [2]: 1.0 | Any Gout Flares Since the Last Visit, % ([2]; 1 day): (57.1) % | Maximum Reported Intensity of Flare (0-10 scale), Mean ([2]; 1 day): 5.8 | Maximum Reported Intensity of Flare (0-10 scale), Median ([2]; 1 day): 5.5 | Maximum Reported Intensity of Flare (0-10 scale), Min, Max ([2]; 1 day): 4, 8 | Pain at rest > 3 out of 10, % ([2]; 1 day): (57.1) % | Pain different than normal, % ([2]; 1 day): (50.0) % | Swelling in Joints, % ([2]; 1 day): (42.9) % | Maximum Reported Intensity of Flare (0-10 scale), Median ([2]; -4 week): 8.0 | Maximum Reported Intensity of Flare (0-10 scale), Min, Max ([2]; -4 week): 7, 10

pegloticase
plasma urate concentration (pUAc) after dosing, mean±SD [3]: 1.0±0.5 mg/dL | Non-responders ([4]; C0405 and C0406): 49/85 | patients maintaining a response to pegloticase ([4]; antibody titer exceeding 1:2430 at any time during treatment, 7 of 65): 10.8% | patients maintaining a response to pegloticase ([4]; never had an antibody titer above 1:2430, 58/65): 89.2% | Responders (sUA <6 mg/dL for at least 80% of the time during month 6) ([4]; historical Phase 3 monotherapy trials C0405 and C0406, 36/85): 42% | response rate during Month 6 ([4]; pegloticase 8 mg every 2 weeks, phase 3 studies): 43% | proportion of responders during Month 6 ([4]; phase 3 studies): 43.5% | incidence of infusion-related reactions ([4]; pooled Phase 3, 8 mg biweekly dosing): 26% | incidence of infusion-related reactions ([4]; pooled Phase 3, 8 mg every-4-week dosing regimen): 40% | pegloticase-treated patients with IRs in whom loss of response (return to SUA >6 mg/dL) preceded the first IR ([4]; pooled Phase 3, 20/21): 95% | infusion reactions reported ([4]; pre-marketing controlled clinical trials, 8 mg every 2 weeks): 26% | anaphylaxis frequency ([4]; pre-marketing controlled clinical trials): 6.5% | participants with high antibody titers who maintained a response (serum urate <6 mg/dL) ([4]; second study): 1 of 52 participants | participants with high titers who developed IR ([4]; second study): 60% | patients who developed IRs ([4]; titers exceeding 1:2430, 31 of 52): 60% | patients with Cmin below quantitation limit ([4]; without MTX, 63/82): 77% | pegloticase overall Cmin, median ([4]; without MTX, historical monotherapy, BQL = below quantitation limit of 0.6 μg/mL): BQL | pegloticase Cmax, median ([4]; without MTX, historical monotherapy): 1510 ng/mL | stability of pegloticase diluted in infusion bags [5]: 4 h
